# Results from patent US12098144B2, “Piperazine indazole glucocorticoid receptor antagonists” (Corcept Therapeutics Incorporated, priority 2021, dated 2024).
# Molecular target: T1, glucocorticoid receptor (Homo sapiens, UniProt P04150)
# T1 construct: endogenous in cells; ATCC cat
# T1 sequence (P04150 1-777): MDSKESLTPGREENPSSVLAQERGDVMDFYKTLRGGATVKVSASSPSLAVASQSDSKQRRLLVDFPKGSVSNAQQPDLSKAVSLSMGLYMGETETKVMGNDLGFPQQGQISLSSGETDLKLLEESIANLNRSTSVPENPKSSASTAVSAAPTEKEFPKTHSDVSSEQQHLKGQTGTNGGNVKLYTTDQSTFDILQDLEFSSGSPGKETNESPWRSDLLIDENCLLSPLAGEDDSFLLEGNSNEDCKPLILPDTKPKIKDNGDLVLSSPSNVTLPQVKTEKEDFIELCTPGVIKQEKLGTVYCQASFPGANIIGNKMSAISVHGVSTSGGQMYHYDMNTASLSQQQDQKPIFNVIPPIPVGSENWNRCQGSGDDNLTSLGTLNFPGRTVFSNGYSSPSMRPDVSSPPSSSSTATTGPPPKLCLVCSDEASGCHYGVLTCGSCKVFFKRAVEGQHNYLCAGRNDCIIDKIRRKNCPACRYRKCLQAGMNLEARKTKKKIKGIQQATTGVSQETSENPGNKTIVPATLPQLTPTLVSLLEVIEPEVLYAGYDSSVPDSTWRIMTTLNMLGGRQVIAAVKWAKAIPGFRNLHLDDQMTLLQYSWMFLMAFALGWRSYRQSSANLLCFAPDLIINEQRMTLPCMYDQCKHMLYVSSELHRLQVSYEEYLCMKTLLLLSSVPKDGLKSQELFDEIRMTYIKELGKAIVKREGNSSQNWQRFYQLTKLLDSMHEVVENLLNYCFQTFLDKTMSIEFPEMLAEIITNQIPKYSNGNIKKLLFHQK
# Assay: Hep G2 TAT Ki: inhibition of dexamethasone-induced TAT in HepG2 cells (96 well)
# Type: cell-based
# Settings: challenge of 100 nM dexamethasone, IC50 converted to Ki by Cheng and Prusoff equation
# How it was run: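 Cells lysed 15 min at 4 °C; TAT enzyme reaction 2 h at 37 °C, stopped with KOH, 30 min further at 37 °C. Inhibition fitted to 4-parameter logistic.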
row,SMILES,Ki [nM]
1,"CO[C@H]1C[C@@H](CN2CCN(S(=O)(=O)c3cnn(C)n3)C[C@H]2c2cc3cnn(-c4ccc(F)cc4)c3cc2C)C1 (relative stereo) [Example 155, 1-(4-fluorophenyl)-5-(1-((3-methoxycyclobutyl)methyl)-4-((2-methyl-2H-1,2,3-triazol-4-yl)sulfonyl)piperazin-2-yl)-6-methyl-1H-indazole]",11
2,"Cc1cc2c(cnn2-c2ccc(F)cc2)cc1[C@@H]1CN(S(=O)(=O)c2cnn(C)n2)CCN1CCC(F)(F)F [Example 84, (R)-1-(4-fluorophenyl)-6-methyl-5-(4-((2-methyl-2H-1,2,3-triazol-4-yl)sulfonyl)-1-(3,3,3-trifluoropropyl)piperazin-2-yl)-1H-indazole]",14
3,"Cc1cc2c(cnn2-c2ccc(F)cc2)cc1C1CN(S(=O)(=O)c2cnn(C)n2)CCN1CC1CC1 (stereo not shown) [Example 12, 5-(1-(cyclopropylmethyl)-4-((2-methyl-2H-1,2,3-triazol-4-yl)sulfonyl)piperazin-2-yl)-1-(4-fluorophenyl)-6-methyl-1H-indazole]",68
4,"Cc1cc2c(cnn2-c2ccc(F)cc2)cc1C1CN(S(=O)(=O)c2cnn(C)n2)CCN1Cc1ccccc1 (stereo not shown) [Example 2, 5-(1-benzyl-4-((2-methyl-2H-1,2,3-triazol-4-yl)sulfonyl)piperazin-2-yl)-1-(4-fluorophenyl)-6-methyl-1H-indazole]",81
5,"CCCn1ncc(S(=O)(=O)N2CCN(CC(C)C)C(c3cc4cnn(-c5ccc(F)cc5)c4cc3C)C2)n1 (stereo not shown) [Example 41, 1-(4-fluorophenyl)-5-(1-isobutyl-4-((2-propyl-2H-1,2,3-triazol-4-yl)sulfonyl)piperazin-2-yl)-6-methyl-1H-indazole]",60
6,"Cc1cc2c(cnn2-c2ccc(F)cc2)cc1C1CN(S(=O)(=O)c2cnn(C)n2)CCN1CC1CC(F)(F)C1 (single isomer, unassigned) [Example 75, 5-(1-((3,3-difluorocyclobutyl)methyl)-4-((2-methyl-2H-1,2,3-triazol-4-yl)sulfonyl)piperazin-2-yl)-1-(4-fluorophenyl)-6-methyl-1H-indazole]",140
7,"Cc1cc2c(cnn2-c2ccc(F)cc2)cc1C1CN(S(=O)(=O)c2cnn(C)n2)CCN1CC1CC1C (stereo not shown) [Example 14, 1-(4-fluorophenyl)-6-methyl-5-(4-((2-methyl-2H-1,2,3-triazol-4-yl)sulfonyl)-1-((2-methylcyclopropyl)methyl)piperazin-2-yl)-1H-indazole]",62
8,"Cc1cc2c(cnn2-c2ccc(F)cc2)cc1C1CN(S(=O)(=O)c2cnn(C)n2)CCN1Cc1ccccc1 (single isomer, unassigned) [Example 5, 5-(1-benzyl-4-((2-methyl-2H-1,2,3-triazol-4-yl)sulfonyl)piperazin-2-yl)-1-(4-fluorophenyl)-6-methyl-1H-indazole]",420
9,"Cc1cc2c(cnn2-c2ccc(F)cc2)cc1C1CN(S(=O)(=O)c2cnn(C)n2)C(C)CN1CC(C)C (stereo not shown) [Example 89, 1-(4-fluorophenyl)-5-(1-isobutyl-5-methyl-4-((2-methyl-2H-1,2,3-triazol-4-yl)sulfonyl)piperazin-2-yl)-6-methyl-1H-indazole]",34
10,"Cc1cc2c(cnn2-c2ccc(F)cc2)cc1C1CN(S(=O)(=O)c2cccnc2)CCN1CC(C)C(F)(F)F (single isomer, unassigned) [Example 145, 1-(4-fluorophenyl)-6-methyl-5-(4-(pyridin-3-ylsulfonyl)-1-(3,3,3-trifluoro-2-methylpropyl)piperazin-2-yl)-1H-indazole]",8.5
11,"Cc1cc2c(cnn2-c2ccc(F)cc2)cc1C1CN(S(=O)(=O)c2cccnc2C#N)CCN1CC(C)C (single isomer, unassigned) [Example 107, 3-((3-(1-(4-fluorophenyl)-6-methyl-1H-indazol-5-yl)-4-isobutylpiperazin-1-yl)sulfonyl)picolinonitrile]",22
12,"Cc1cc2c(cnn2-c2ccc(F)cc2)cc1C1CN(S(=O)(=O)c2cnn(C)n2)CCN1CC1CCCO1 (single isomer, unassigned) [Example 120, 1-(4-fluorophenyl)-6-methyl-5-(4-((2-methyl-2H-1,2,3-triazol-4-yl)sulfonyl)-1-((tetrahydrofuran-2-yl)methyl)piperazin-2-yl)-1H-indazole]",65
13,"Cc1cc2c(cnn2-c2ccc(F)cc2)cc1C1CN(S(=O)(=O)CCOC(C)C)CCN1CC(C)C (single isomer, unassigned) [Example 108, 1-(4-fluorophenyl)-5-(1-isobutyl-4-((2-isopropoxyethyl)sulfonyl)piperazin-2-yl)-6-methyl-1H-indazole]",44
14,"Cc1cc2c(cnn2-c2ccc(F)cc2)cc1C1CN(S(=O)(=O)C2COC2)CCN1CC(C)C (single isomer, unassigned) [Example 111, 1-(4-fluorophenyl)-5-(1-isobutyl-4-(oxetan-3-ylsulfonyl)piperazin-2-yl)-6-methyl-1H-indazole]",65
15,"Cc1cc2c(cnn2-c2ccc(F)cc2)cc1C1CN(S(=O)(=O)c2cnn(C)n2)CCN1CC(C)C(F)(F)F (single isomer, unassigned) [Example 21, 1-(4-fluorophenyl)-6-methyl-5-(4-((2-methyl-2H-1,2,3-triazol-4-yl)sulfonyl)-1-(3,3,3-trifluoro-2-methylpropyl)piperazin-2-yl)-1H-indazole]",120
16,"Cc1cc2c(cnn2-c2ccc(F)c(C#N)c2)cc1C1CN(S(=O)(=O)c2cnn(C)n2)CCN1CCC(F)(F)F (single isomer, unassigned) [Example 170, 2-fluoro-5-(6-methyl-5-(4-((2-methyl-2H-1,2,3-triazol-4-yl)sulfonyl)-1-(3,3,3-trifluoropropyl)piperazin-2-yl)-1H-indazol-1-yl)benzonitrile]",91
17,"Cc1ncc(S(=O)(=O)N2CCN(CC(C)C)C(c3cc4cnn(-c5ccc(F)cc5)c4cc3C)C2)s1 (single isomer, unassigned) [Example 31, 5-((3-(1-(4-fluorophenyl)-6-methyl-1H-indazol-5-yl)-4-isobutylpiperazin-1-yl)sulfonyl)-2-methylthiazole]",11
18,"COc1ccc(CN2CCN(S(=O)(=O)c3cnn(C)n3)CC2c2cc3cnn(-c4ccc(F)cc4)c3cc2C)cc1 (stereo not shown) [Example 3, 1-(4-fluorophenyl)-5-(1-(4-methoxybenzyl)-4-((2-methyl-2H-1,2,3-triazol-4-yl)sulfonyl)piperazin-2-yl)-6-methyl-1H-indazole]",85
19,Cc1cc2c(cnn2-c2ccc(F)cc2)cc1[C@H]1CN(S(=O)(=O)c2cnn(C)n2)C[C@@H](C)N1CC(C)C (relative stereo) [Example 127],22
20,"Cc1cc2c(cnn2-c2ccc(F)cc2)cc1C1CN(S(=O)(=O)c2cnccc2C)CCN1CC(C)C(F)(F)F (single isomer, unassigned) [Example 149, 1-(4-fluorophenyl)-6-methyl-5-(4-((4-methylpyridin-3-yl)sulfonyl)-1-(3,3,3-trifluoro-2-methylpropyl)piperazin-2-yl)-1H-indazole]",56
21,"Cc1cc2c(cnn2-c2ccc(F)cc2)cc1C1CN(S(=O)(=O)c2ccc(C#N)nc2)CCN1CC(C)C (single isomer, unassigned) [Example 117, 5-((3-(1-(4-fluorophenyl)-6-methyl-1H-indazol-5-yl)-4-isobutylpiperazin-1-yl)sulfonyl)picolinonitrile]",38
22,"CC(C)CN1CCN(S(=O)(=O)c2cnn(C)n2)CC1c1cc2cnn(-c3ccc(F)cc3)c2cc1C(F)(F)F (stereo not shown) [Example 164, 1-(4-fluorophenyl)-5-(1-isobutyl-4-((2-methyl-2H-1,2,3-triazol-4-yl)sulfonyl)piperazin-2-yl)-6-(trifluoromethyl)-1H-indazole]",170
23,"Cc1cc2c(cnn2-c2ccc(F)cc2)cc1[C@@H]1CN(S(=O)(=O)c2cnn(C)n2)CCN1C[C@@H](C)C(F)(F)F [Example 32, 1-(4-fluorophenyl)-6-methyl-5-((R)-4-((2-methyl-2H-1,2,3-triazol-4-yl)sulfonyl)-1-((R)-3,3,3-trifluoro-2-methylpropyl)piperazin-2-yl)-1H-indazole]",19
24,"Cc1cc2c(cnn2-c2ccc(F)cc2)cc1[C@H]1CN(S(=O)(=O)c2cnn(C)n2)C[C@@H](C)N1CC(C)C (single isomer, unassigned) [Example 126]",62
25,"Cc1cc2c(cnn2-c2ccc(F)cc2)cc1C1CN(S(=O)(=O)c2cnn(C)n2)CCN1CC1CC(C)(C)C1 (single isomer, unassigned) [Example 119, 5-(1-((3,3-dimethylcyclobutyl)methyl)-4-((2-methyl-2H-1,2,3-triazol-4-yl)sulfonyl)piperazin-2-yl)-1-(4-fluorophenyl)-6-methyl-1H-indazole]",19
